Consider 4 compounds from ChEMBL document CHEMBL5303573, “Mapping human microbiome drug metabolism by gut bacteria and their genes” (Nature, 2019).

For data set [1] the following is noted: akkermansia muciniphila, 12 h, 2 µM.
Description: The drug is tested on Akkermansia muciniphila strain: ATCC BAA-835 for biotransformation. The drug concentrations were measured before and after a 12-h incubation by liquid-chromatography-coupled mass spectrometry (LC–MS)
Data set [2] in a line: The drug is tested on Enterobacter cancerogenus strain: ATCC35316 for biotransformation. The drug concentrations were measured before and after a 12-h incubation by liquid-chromatography-coupled mass spectrometry (LC–MS). As to conditions: 2 µM.
Data set [3] in a line: The drug is tested on Eggerthella lenta strain: ATCC25559 for biotransformation. The drug concentrations were measured before and after a 12-h incubation by liquid-chromatography-coupled mass spectrometry (LC–MS). The following applies: 2 µM.
For data set [4] the following is noted: bifidobacterium adolescentis, 12 h, 2 µM.
Description: The drug is tested on Bifidobacterium adolescentis strain: ATCC 15703 for biotransformation. The drug concentrations were measured before and after a 12-h incubation by liquid-chromatography-coupled mass spectrometry (LC–MS)
The nature of data set [5]: The drug is tested on Ruminococcus gnavus strain: ATCC29149 for biotransformation. The drug concentrations were measured before and after a 12-h incubation by liquid-chromatography-coupled mass spectrometry (LC–MS). The following applies: mediterraneibacter gnavus, 2 µM.
Data set [6] can be described thus: The drug is tested on Bifidobacterium longum subsp. Infantis strain: CCUG52486 for biotransformation. The drug concentrations were measured before and after a 12-h incubation by liquid-chromatography-coupled mass spectrometry (LC–MS). The following applies: 2 µM.
The nature of data set [7]: The drug is tested on Escherichia coli strain: BW25113 for biotransformation. The drug concentrations were measured before and after a 12-h incubation by liquid-chromatography-coupled mass spectrometry (LC–MS). The following applies: 2 µM.
Data set [8] can be described thus: The drug is tested on Coprococcus comes strain: ATCC27758 for biotransformation. The drug concentrations were measured before and after a 12-h incubation by liquid-chromatography-coupled mass spectrometry (LC–MS). In kind it is ADME. More on the design: dose 2 uM, timepoint 0 vs 12 hours. As to conditions: 2 µM.
The nature of data set [9]: The drug is tested on Alistipes indistinctus strain: DSM22520 for biotransformation. The drug concentrations were measured before and after a 12-h incubation by liquid-chromatography-coupled mass spectrometry (LC–MS). As to conditions: 2 µM.
The conditions of data set [10]: bacteroides intestinalis, 12 h, 2 µM.
Description: The drug is tested on Bacteroides intestinalis strain: DSM17393 for biotransformation. The drug concentrations were measured before and after a 12-h incubation by liquid-chromatography-coupled mass spectrometry (LC–MS)
A short description of data set [11]: The drug is tested on Collinsella aerofaciens strain: ATCC25986 for biotransformation. The drug concentrations were measured before and after a 12-h incubation by liquid-chromatography-coupled mass spectrometry (LC–MS). The following applies: 2 µM.
Data set [12] is described as follows: The drug is tested on Bacteroides finegoldii strain: DSM17565 for biotransformation. The drug concentrations were measured before and after a 12-h incubation by liquid-chromatography-coupled mass spectrometry (LC–MS). The following applies: 2 µM.
A short description of data set [13]: The drug is tested on Clostridium scindens strain: ATCC35704 for biotransformation. The drug concentrations were measured before and after a 12-h incubation by liquid-chromatography-coupled mass spectrometry (LC–MS). The following applies: 2 µM.
The nature of data set [14]: The drug is tested on Dorea formicigenerans strain: ATCC27755 for biotransformation. The drug concentrations were measured before and after a 12-h incubation by liquid-chromatography-coupled mass spectrometry (LC–MS). As to conditions: 2 µM.
For data set [15] the following is noted: enterocloster bolteae, 12 h, 2 µM.
Description: The drug is tested on Clostridium bolteae strain: ATCCBAA-613 for biotransformation. The drug concentrations were measured before and after a 12-h incubation by liquid-chromatography-coupled mass spectrometry (LC–MS)
A short description of data set [16]: The drug is tested on Bacteroides cellulosilyticus strain: DSM14838 for biotransformation. The drug concentrations were measured before and after a 12-h incubation by liquid-chromatography-coupled mass spectrometry (LC–MS). As to conditions: 2 µM.
The conditions of data set [17]: segatella copri, 12 h, 2 µM.
Description: The drug is tested on Prevotella copri strain: DSM18205 for biotransformation. The drug concentrations were measured before and after a 12-h incubation by liquid-chromatography-coupled mass spectrometry (LC–MS)
The nature of data set [18]: The drug is tested on Enterococcus faecalis strain: V583 for biotransformation. The drug concentrations were measured before and after a 12-h incubation by liquid-chromatography-coupled mass spectrometry (LC–MS). As to conditions: 2 µM.
The nature of data set [19]: The drug is tested on Providencia rettgeri strain: DSM1131 for biotransformation. The drug concentrations were measured before and after a 12-h incubation by liquid-chromatography-coupled mass spectrometry (LC–MS). Type of data set: ADME. Details: dose 2 uM, timepoint 0 vs 12 hours. The following applies: 2 µM.
For data set [20] the following is noted: bacteroides fragilis, 12 h, 2 µM.
Description: The drug is tested on Bacteroides fragilis strain: NCTC 9343 for biotransformation. The drug concentrations were measured before and after a 12-h incubation by liquid-chromatography-coupled mass spectrometry (LC–MS)

Take `CC(=O)O[C@H]1C(=O)[C@@]2(C)[C@H]([C@H](OC(=O)c3ccccc3)[C@]3(O)C[C@H](OC(=O)[C@H](O)[C@@H](NC(=O)c4ccccc4)c4ccccc4)C(C)=C1C3(C)C)[C@]1(OC(C)=O)CO[C@@H]1C[C@@H]2O` [PACLITAXEL]: the “Bacterial Biotransformation” value in data set [1], in [2], in data set [3], in data set [4], in data set [5] and in data set [6] was “Compound NOT metabolized” each time. Further, the “Bacterial Biotransformation” value in data set [7], in data set [8], in data set [9], in data set [10], in data set [11] and in data set [12] was “Compound NOT metabolized” each time. Moreover, the “Bacterial Biotransformation” value in data set [13], in [14], in data set [15], in data set [16], in [17] and in data set [18] was “Compound NOT metabolized” throughout.
In the case of `OC(c1cc(C(F)(F)F)nc2c(C(F)(F)F)cccc12)C1CCCCN1` (stereo not drawn) [MEFLOQUINE], the “Bacterial Biotransformation” value in data set [2] is reported as “Compound NOT metabolized”; in [19], “Compound NOT metabolized”; in data set [3] it was “Compound metabolized”; in data set [4] it was “Compound NOT metabolized”; in data set [5], “Compound NOT metabolized”; in [6] it was “Compound NOT metabolized”. Besides, the “Bacterial Biotransformation” value in data set [7] was “Compound metabolized”; in data set [8], “Compound NOT metabolized”; in data set [9], “Compound NOT metabolized”; in data set [10] it was “Compound NOT metabolized”; in data set [11] it was “Compound NOT metabolized”; in [12], “Compound NOT metabolized”. The “Bacterial Biotransformation” value in [13], in data set [14], in data set [15], in data set [20], in [16] and in [17] was “Compound NOT metabolized” throughout. For the same compound, the “Bacterial Biotransformation” value in [18] is reported as “Compound NOT metabolized”.
For `CCc1nc(N)nc(N)c1-c1ccc(Cl)cc1` [PYRIMETHAMINE], the “Bacterial Biotransformation” value in [2], in data set [19], in [3], in data set [4], in data set [5] and in data set [6] was “Compound NOT metabolized” each time. Further, the “Bacterial Biotransformation” value in [8], in [9], in [10], in data set [11], in [12] and in [13] was “Compound NOT metabolized” each time. The “Bacterial Biotransformation” value in [14], in data set [15], in data set [20], in [16], in data set [17] and in data set [18] was “Compound NOT metabolized” throughout.
Take `COC(=O)[C@H]1[C@H]2C[C@@H]3c4[nH]c5cc(OC)ccc5c4CCN3C[C@H]2C[C@@H](OC(=O)c2cc(OC)c(OC)c(OC)c2)[C@@H]1OC` [RESERPINE]: the “Bacterial Biotransformation” value in data set [1], in data set [2], in [19], in data set [3], in [4] and in [5] was “Compound NOT metabolized” each time. Besides, the “Bacterial Biotransformation” value in data set [6], in data set [7], in data set [8], in data set [9], in [10] and in data set [11] was “Compound NOT metabolized” each time. Besides, the “Bacterial Biotransformation” value in data set [14], in [15], in data set [20], in data set [16], in [17] and in data set [18] was “Compound NOT metabolized” in each case.
